# In patent publication US9012446B2, “Amino-oxazines and amino-dihydrothiazine compounds as beta-secretase modulators and methods of use” (Amgen Inc., priority 2010, dated 2015):
# Like-named read-outs stand apart in the source and are kept apart here.
# Columns and labels:
# BACE = BACE (Homo sapiens, UniProt P56817); experiment: In vitro enzymatic BACE FRET assay; format: biochemical; settings: average IC50, enzyme assay; read-out: BACE 1 FRET assay
# Outline: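 BACE (0.2 nM) preincubated 1 h with serially diluted inhibitors in 0.05 M acetate pH 4.2, 10% DMSO, 100 uM genapol. FRET peptide substrate (50 nM) added, 1 h incubation, then stopped with Tris to neutral pH. Fluorescence from cleavage read at […].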
# Aβ40 = experiment: In vitro BACE cell-based assay (Aβ40 sandwich ELISA, cells stably expressing APP); settings: Homo sapiens, HEK293, average IC50; read-out: HEK cell assay
# Outline: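 APP-stably-expressing cells, grown 24 h in DMEM/10% FBS, received 10-point compound doses starting at 100 μM or 10 μM (0.1% DMSO final). Secreted Aβ40 in supernatants measured by sandwich ELISA with time-resolved europium fluorescence; IC50 from percent inhibition versus concentration.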
# Abeta 40 = experiment: In vivo inhibition of beta-secretase: Abeta 40 reduction in CSF and brain of the rat; settings: 10 mpk, after 4 hrs
# Outline: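 Male Sprague Dawley rats (200 g) were given test compound by oral gavage in 2% HPMC, 1% Tween80, pH 2.2, while a vehicle-only group served as control. After sacrifice, brains were homogenized in 0.2% DEA/50 mM NaCl or 0.5% TritonX-100 in Tris-buffered saline and centrifuged at 355,000 g, 4° C. for 30 minutes. Abeta40 in CSF and brain supernatants was quantified by ECL sandwich ELISA (biotinylated-4G8 capture, Fab40 detection) as percent reduction versus vehicle.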
# [1] = Abeta 40, rat CSF, read-out: % reduction of rat CSF levels at 10 pmk
# [2] = Abeta 40, rat brain, read-out: % reduction of rat brain levels at 10 mpk
# BACE, sequence (P56817 46-501, species assumed): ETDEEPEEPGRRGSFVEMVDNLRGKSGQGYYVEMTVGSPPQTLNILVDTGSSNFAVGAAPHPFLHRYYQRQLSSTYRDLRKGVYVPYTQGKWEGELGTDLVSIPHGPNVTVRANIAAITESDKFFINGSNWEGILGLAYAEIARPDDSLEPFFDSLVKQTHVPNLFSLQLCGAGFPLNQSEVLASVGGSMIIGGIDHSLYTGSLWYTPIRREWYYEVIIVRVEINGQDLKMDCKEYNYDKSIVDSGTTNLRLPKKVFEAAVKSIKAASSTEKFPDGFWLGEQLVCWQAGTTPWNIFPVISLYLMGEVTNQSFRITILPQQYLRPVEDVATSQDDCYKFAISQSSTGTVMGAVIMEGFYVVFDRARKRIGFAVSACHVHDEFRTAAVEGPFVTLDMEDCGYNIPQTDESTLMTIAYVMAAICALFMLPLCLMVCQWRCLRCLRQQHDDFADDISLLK
structure (smiles),measurement,setting,value
"Cc1cc(-c2cc3c(c(F)n2)Oc2ccc(-c4cccnc4F)cc2[C@@]32COCC(N)=N2)ccn1 [Example 248, (S)-1-fluoro-7-(2-fluoropyridin-3-yl)-3-(2-methylpyridin-4-yl)-2′,6′-dihydrospiro[chromeno[2,3-c]pyridine-5,3′-[1,4]oxazin]-5′-amine]",IC50,BACE,0.6 nM
same,IC50,Aβ40,0.7 nM
same,inhibition in vivo at 10 mg/kg,Abeta 40; [1],53%
same,inhibition in vivo at 10 mg/kg,Abeta 40; [2],39%
"NC1=N[C@@]2(COC1)c1cc(-c3cccnc3F)ccc1Oc1c2cc(C2=CCCOC2)nc1F [Example 249, (S)-3-(5,6-dihydro-2H-pyran-3-yl)-1-fluoro-7-(2-fluoropyridin-3-yl)-2′,6′-dihydrospiro[chromeno[2,3-c]pyridine-5,3′-[1,4]oxazin]-5′-amine]",IC50,BACE,0.4 nM
same,IC50,Aβ40,0.4 nM
same,inhibition in vivo at 10 mg/kg,Abeta 40; [1],72%
same,inhibition in vivo at 10 mg/kg,Abeta 40; [2],59%
"CC(C)(C)COc1cc2c(c(F)n1)Oc1ccc(-c3cccnc3F)cc1[C@@]21COCC(N)=N1 [Example 250, (5S)-3-(2,2-dimethylpropoxy)-1-fluoro-7-(2-fluoro-3-pyridinyl)-6′H-Spiro[chromeno[2,3-c]pyridine-5,3′-[1,4]oxazin]-5′-amine]",IC50,BACE,0.6 nM
same,IC50,Aβ40,2.8 nM
same,inhibition in vivo at 10 mg/kg,Abeta 40; [1],72%
same,inhibition in vivo at 10 mg/kg,Abeta 40; [2],72%
"CC(C)(C)C#Cc1cnc2c(c1)[C@]1(CCOC(N)=N1)c1cc(-c3cccnc3F)ccc1O2 [Example 270, (S)-3-(3,3-dimethylbut-1-ynyl)-7-(2-fluoropyridin-3-yl)-5′,6′-dihydrospiro[chromeno[2,3-b]pyridine-5,4′-[1,3]oxazin]-2′-amine]",IC50,BACE,3.1 nM
same,IC50,Aβ40,4.9 nM
same,inhibition in vivo at 10 mg/kg,Abeta 40; [1],70%
same,inhibition in vivo at 10 mg/kg,Abeta 40; [2],52%
